Reference: ChEMBL document CHEMBL1201862, “PubChem BioAssay data set” (2004)
Calls of active or inactive are those of the source.

How the values were obtained:
[1] = biological target: T1, Microphthalmia-associated transcription factor (Homo sapiens, UniProt O75030); assay: TRPM1 promoter luciferase signal decrease, dose response, MITF inhibitor project, cell-based, SK-MEL-5, cherry-picked, set 3 (AID 493073); type: functional
T1 sequence (O75030 whole entry): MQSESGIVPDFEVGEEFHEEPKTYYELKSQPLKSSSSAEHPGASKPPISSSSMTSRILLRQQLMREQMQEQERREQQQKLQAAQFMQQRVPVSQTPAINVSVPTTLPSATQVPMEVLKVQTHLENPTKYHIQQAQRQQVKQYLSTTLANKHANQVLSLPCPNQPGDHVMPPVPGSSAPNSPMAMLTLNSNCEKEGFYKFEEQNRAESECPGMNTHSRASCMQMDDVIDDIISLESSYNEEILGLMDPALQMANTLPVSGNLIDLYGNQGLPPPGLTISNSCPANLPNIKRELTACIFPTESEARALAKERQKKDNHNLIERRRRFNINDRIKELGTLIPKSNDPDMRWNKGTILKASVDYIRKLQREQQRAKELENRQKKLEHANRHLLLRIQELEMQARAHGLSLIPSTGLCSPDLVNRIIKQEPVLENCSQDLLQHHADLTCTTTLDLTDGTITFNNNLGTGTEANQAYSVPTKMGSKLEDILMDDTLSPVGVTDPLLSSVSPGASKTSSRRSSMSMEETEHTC

[2] = Luminescence-based counterscreen assay for KLF5 inhibitors: dose response cell-based high throughput screening assay to identify cytotoxic compounds using the IEC-6 intestinal epithelial cell line. [Related pubchem assays: 1700 (Primary screen.), 1834 (Confirmation screen.), 1858 (Summary AID.), 1905 (Counterscreen.)]; type: functional
cells [3] = type: functional, cell-based
cells [4] = type: functional, cell-based; remark: listed apart in the source
[5] = A Cell Based Secondary Assay To Explore Cytotoxicity of Compounds that Sensitize Mycobacterium Tuberculosis to Beta-Lactam Antibiotics.; type: functional
[6] = Luminescence Cell-Based Dose Response HTS to Identify Activators of Luciferase Translation or Activity in H4 […] Cells. [Related pubchem assays: 1829 (Project Summary), 1814 (Primary HTS)]; type: functional
[7] = Luminescence Cell-Based Dose Confirmation HTS to Identify Activators of 5'UTR Stem-Loop Driven Alpha-Synuclein mRNA Translation in H4 Neuroglioblastoma Cells. [Related pubchem assays: 1829 (Project Summary), 1814 (Primary HTS)]; type: functional
H4 = assay: Luminescence Cell-Based Dose Response HTS to Identify Activators of 5'UTR Stem-Loop Driven Prion Protein mRNA Translation in H4 Neuroglioblastoma Cells. [Related pubchem assays: 1829 (Project Summary), 1814 (Primary HTS)]; type: functional; details: Homo sapiens
Leucine aminopeptidase = biological target: T2, Leucine aminopeptidase (Plasmodium falciparum 3D7, UniProt Q8IL11); assay: P. falciparum M17LAP inhibitors, primary screen, biochemical, fluorogenic H-Leu-NHMec substrate, 1536-well (AID 1619); type: functional
T2 sequence (Q8IL11 whole entry): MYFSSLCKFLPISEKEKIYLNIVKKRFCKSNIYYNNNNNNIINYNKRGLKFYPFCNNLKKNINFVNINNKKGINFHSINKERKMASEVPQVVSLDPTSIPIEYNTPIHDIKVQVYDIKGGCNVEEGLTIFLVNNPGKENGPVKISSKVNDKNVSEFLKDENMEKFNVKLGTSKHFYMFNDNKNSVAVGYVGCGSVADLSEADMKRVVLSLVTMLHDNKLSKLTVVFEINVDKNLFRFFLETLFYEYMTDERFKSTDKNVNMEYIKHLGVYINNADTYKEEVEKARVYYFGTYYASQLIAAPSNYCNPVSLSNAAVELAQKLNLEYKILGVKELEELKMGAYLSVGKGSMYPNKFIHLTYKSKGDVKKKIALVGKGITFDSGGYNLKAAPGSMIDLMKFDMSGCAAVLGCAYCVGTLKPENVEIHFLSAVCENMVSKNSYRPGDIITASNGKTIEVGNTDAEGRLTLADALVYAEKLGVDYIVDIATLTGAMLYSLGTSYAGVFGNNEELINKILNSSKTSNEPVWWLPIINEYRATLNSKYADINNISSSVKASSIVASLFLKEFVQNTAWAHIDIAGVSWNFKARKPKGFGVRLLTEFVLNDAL

[8] = inhibitors of intracellular T. cruzi replication, confirmation, NIH3T3 host cells, beta-gal luminescence (AID 2044); type: functional, cell-based;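 further: intracellular parasites grown in NIH/3T3 mouse fibroblasts as host cells; luminescent beta-galactosidase reporter signal from transgenic T. cruzi replicating inside host cells; inhibitors lower the luminescence signal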
[9] = cytotoxicity toward NIH3T3 fibroblasts, dose response, counter-screen, cell-based, ATP luminescence, mouse fibroblasts (AID 2010); type: functional;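 further: cells exposed to compound for about 90 hours before reading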
[10] = biological target: Peroxisome proliferator-activated receptor gamma/Nuclear receptor coactivator 3 (Homo sapiens, UniProt P37231); type: functional;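 further: agonist potency for raising coactivator recruitment to the receptor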
[11] = biological target: Peroxisome proliferator-activated receptor gamma/Nuclear receptor coactivator 1 (Homo sapiens, UniProt P37231); type: functional;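 further: agonist potency as compounds enhance coactivator SRC-1 recruitment to PPARgamma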
[12] = biological target: Peroxisome proliferator-activated receptor gamma/Nuclear receptor coactivator 2 (Homo sapiens, UniProt P37231); type: functional;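 further: agonist potency for raising coactivator recruitment to the receptor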
cells [13] = type: functional
[14] = THP-1 cell cytotoxicity, dose response, cytotoxicity control for non-replicating M. tuberculosis project (AID 489025); type: functional
[15] = cytotoxicity in HPDE-C7 cells, cell-based, fluorescence, HTS (AID 430); type: functional; details: Homo sapiens
[16] = cytotoxicity in KRAS-transformed pancreatic duct cells, primary screen, cell-based, fluorescence, HTS (AID 431); type: functional; details: Homo sapiens;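 further: cell line used: HPDE-C7K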
[17] = biological target: Luciferin 4-monooxygenase (Photinus pyralis, UniProt P08659); assay: firefly luciferase enzyme inhibitors, dose response, biochemical, luminescence (AID 1891)
[18] = inhibitors of SNCA 5'UTR-driven reporter translation, confirmation, H4 neuroglioma cells, luminescence (AID 1988); type: functional, cell-based
[19] = cytotoxicity in HEK-293T cells, dose response, cytotoxicity control for TCR NF-kB inhibitor project, luminescence, T-cell screen hits (AID 489026); type: functional, cell-based;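 further: cells exposed to compound about 14 hours before the viability readout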
[20] = inhibitors of firefly luciferase expression or activity, dose response, H4 neuroglioma cells, luminescence (AID 1990); type: functional, cell-based
[21] = Luminescence Cell-Based Dose Confirmation HTS to Identify Inhibitors of Platelet Dense Granule Release. [Related pubchem assays: 1663 (Primary HTS), 1678 (Summary of Project)]; type: functional
[22] = Luminescence Cell-Based Dose Response HTS to Identify Inhibitors of 5'UTR Stem-Loop Driven Prion Protein mRNA Translation in H4 Neuroglioblastoma Cells. [Related pubchem assays: 1827 (Project Summary), 1813 (Primary HTS)]; type: functional
[23] = biological target: T3, Replicative DNA helicase DnaB (Mycobacterium tuberculosis, UniProt P9WMR3); assay: DnaB intein splicing inhibitors, dose response, biochemical, cell-free fluorescence (AID 449749); type: functional
T3 sequence (P9WMR3 whole entry): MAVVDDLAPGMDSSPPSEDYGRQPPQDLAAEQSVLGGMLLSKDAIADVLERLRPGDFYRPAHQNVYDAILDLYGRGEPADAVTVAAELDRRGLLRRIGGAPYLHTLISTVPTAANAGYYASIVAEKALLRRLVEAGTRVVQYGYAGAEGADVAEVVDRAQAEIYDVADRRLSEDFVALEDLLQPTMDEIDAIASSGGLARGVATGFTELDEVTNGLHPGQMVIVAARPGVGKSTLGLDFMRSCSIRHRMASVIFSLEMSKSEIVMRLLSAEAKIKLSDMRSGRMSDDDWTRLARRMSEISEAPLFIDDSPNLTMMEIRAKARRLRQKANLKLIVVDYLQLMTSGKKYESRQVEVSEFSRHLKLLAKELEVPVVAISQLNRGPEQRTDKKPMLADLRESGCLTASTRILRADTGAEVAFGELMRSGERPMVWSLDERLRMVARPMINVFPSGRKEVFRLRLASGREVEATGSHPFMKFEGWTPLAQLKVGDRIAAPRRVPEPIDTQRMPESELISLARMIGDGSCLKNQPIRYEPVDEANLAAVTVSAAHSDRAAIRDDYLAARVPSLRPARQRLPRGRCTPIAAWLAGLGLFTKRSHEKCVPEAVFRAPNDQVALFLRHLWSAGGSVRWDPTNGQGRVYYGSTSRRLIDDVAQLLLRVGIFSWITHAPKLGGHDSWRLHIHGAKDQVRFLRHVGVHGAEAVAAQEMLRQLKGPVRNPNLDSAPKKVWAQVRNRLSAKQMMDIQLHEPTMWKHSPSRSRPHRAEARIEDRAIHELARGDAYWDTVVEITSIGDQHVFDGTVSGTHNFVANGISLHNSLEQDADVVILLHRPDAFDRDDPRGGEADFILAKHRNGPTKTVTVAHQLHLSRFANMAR

Protein RecA = biological target: T4, Protein RecA (Mycobacterium tuberculosis, UniProt P9WHJ3); assay: Fluorescence Cell-Free Homogeneous Dose Retest to Identify Inhibitors of RecA-Intein Splicing Activity. [Related pubchem assays (depositor defined):AID2097, AID2223, AID489010, AID492950]; type: functional
T4 sequence (P9WHJ3 whole entry): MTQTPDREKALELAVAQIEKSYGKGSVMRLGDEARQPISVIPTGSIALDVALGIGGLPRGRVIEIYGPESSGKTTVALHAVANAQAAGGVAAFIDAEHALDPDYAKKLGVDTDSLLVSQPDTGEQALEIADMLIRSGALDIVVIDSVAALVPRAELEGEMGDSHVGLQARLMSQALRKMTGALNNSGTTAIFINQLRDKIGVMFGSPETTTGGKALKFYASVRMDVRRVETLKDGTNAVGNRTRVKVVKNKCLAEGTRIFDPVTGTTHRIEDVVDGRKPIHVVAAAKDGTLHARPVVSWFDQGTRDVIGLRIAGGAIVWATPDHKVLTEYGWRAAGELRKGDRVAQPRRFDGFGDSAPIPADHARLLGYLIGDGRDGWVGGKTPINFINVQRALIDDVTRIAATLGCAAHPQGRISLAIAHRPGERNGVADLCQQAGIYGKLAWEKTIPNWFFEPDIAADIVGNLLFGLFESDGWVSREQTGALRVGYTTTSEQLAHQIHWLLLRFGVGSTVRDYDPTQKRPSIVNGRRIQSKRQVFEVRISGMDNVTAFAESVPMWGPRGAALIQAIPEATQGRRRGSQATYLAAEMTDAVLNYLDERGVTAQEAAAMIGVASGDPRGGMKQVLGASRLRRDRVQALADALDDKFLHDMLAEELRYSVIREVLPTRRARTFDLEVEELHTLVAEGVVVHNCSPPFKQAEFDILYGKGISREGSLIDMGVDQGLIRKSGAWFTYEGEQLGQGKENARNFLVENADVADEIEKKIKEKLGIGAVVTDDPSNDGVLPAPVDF

[24] = HEp-2 cell cytotoxicity, dose response, cytotoxicity control for RSV inhibitor project, HTS (AID 2410); type: functional; details: human respiratory syncytial virus

Peroxisome proliferator-activated receptor gamma/Nuclear receptor coactivator 3, sequence (P37231 whole entry): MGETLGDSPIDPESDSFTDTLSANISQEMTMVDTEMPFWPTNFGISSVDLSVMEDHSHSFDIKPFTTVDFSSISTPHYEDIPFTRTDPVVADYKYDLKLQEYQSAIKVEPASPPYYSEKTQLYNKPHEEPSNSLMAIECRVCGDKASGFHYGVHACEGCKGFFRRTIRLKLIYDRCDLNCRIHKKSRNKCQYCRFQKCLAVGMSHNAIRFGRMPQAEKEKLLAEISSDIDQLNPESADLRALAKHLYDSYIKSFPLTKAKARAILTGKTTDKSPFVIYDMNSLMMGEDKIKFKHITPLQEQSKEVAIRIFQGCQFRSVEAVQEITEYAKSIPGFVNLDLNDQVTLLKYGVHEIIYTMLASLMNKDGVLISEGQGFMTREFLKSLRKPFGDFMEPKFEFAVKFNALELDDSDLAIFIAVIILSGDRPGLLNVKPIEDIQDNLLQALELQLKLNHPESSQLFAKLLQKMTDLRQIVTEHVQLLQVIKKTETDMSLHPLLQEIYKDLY
Peroxisome proliferator-activated receptor gamma/Nuclear receptor coactivator 3, sequence (Q9Y6Q9 whole entry, further chain): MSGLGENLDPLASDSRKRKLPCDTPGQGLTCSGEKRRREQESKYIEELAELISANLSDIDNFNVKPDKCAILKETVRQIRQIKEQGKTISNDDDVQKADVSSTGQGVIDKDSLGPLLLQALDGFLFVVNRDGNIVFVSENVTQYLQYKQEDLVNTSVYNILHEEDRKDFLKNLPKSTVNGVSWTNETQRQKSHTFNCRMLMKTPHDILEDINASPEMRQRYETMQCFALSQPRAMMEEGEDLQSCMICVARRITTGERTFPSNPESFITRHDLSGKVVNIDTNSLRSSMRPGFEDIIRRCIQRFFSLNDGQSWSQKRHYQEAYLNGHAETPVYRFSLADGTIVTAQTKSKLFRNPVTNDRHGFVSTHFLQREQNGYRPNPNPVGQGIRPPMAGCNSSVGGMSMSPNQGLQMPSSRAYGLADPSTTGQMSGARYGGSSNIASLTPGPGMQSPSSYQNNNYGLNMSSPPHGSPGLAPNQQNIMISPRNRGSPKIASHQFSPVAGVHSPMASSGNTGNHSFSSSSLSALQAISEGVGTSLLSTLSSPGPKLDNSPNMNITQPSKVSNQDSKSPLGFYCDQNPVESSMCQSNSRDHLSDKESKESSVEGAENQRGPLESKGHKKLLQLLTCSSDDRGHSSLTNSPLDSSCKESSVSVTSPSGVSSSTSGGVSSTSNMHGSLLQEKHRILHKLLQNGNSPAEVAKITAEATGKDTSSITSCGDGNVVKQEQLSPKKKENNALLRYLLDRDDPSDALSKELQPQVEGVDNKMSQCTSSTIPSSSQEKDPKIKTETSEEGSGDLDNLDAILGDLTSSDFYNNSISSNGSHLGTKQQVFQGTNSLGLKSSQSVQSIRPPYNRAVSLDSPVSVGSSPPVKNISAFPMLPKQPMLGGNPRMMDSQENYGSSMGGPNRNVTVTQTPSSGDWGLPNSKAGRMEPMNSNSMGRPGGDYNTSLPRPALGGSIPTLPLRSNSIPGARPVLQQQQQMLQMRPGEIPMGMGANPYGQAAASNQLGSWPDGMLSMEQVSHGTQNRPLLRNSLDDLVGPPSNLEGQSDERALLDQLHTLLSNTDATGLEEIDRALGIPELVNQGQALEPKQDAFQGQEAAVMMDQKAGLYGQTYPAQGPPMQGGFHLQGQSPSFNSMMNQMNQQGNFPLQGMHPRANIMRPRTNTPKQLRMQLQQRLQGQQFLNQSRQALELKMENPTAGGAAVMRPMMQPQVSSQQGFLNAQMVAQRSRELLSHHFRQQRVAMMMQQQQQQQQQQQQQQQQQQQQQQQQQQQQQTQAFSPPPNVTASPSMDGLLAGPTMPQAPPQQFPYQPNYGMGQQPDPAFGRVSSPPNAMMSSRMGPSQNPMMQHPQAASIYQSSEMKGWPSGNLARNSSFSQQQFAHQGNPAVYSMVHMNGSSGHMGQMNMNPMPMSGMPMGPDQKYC
Peroxisome proliferator-activated receptor gamma/Nuclear receptor coactivator 1, sequence (P37231 whole entry): as the sequence (P37231 whole entry) above
Peroxisome proliferator-activated receptor gamma/Nuclear receptor coactivator 1, sequence (Q15788 whole entry, further chain): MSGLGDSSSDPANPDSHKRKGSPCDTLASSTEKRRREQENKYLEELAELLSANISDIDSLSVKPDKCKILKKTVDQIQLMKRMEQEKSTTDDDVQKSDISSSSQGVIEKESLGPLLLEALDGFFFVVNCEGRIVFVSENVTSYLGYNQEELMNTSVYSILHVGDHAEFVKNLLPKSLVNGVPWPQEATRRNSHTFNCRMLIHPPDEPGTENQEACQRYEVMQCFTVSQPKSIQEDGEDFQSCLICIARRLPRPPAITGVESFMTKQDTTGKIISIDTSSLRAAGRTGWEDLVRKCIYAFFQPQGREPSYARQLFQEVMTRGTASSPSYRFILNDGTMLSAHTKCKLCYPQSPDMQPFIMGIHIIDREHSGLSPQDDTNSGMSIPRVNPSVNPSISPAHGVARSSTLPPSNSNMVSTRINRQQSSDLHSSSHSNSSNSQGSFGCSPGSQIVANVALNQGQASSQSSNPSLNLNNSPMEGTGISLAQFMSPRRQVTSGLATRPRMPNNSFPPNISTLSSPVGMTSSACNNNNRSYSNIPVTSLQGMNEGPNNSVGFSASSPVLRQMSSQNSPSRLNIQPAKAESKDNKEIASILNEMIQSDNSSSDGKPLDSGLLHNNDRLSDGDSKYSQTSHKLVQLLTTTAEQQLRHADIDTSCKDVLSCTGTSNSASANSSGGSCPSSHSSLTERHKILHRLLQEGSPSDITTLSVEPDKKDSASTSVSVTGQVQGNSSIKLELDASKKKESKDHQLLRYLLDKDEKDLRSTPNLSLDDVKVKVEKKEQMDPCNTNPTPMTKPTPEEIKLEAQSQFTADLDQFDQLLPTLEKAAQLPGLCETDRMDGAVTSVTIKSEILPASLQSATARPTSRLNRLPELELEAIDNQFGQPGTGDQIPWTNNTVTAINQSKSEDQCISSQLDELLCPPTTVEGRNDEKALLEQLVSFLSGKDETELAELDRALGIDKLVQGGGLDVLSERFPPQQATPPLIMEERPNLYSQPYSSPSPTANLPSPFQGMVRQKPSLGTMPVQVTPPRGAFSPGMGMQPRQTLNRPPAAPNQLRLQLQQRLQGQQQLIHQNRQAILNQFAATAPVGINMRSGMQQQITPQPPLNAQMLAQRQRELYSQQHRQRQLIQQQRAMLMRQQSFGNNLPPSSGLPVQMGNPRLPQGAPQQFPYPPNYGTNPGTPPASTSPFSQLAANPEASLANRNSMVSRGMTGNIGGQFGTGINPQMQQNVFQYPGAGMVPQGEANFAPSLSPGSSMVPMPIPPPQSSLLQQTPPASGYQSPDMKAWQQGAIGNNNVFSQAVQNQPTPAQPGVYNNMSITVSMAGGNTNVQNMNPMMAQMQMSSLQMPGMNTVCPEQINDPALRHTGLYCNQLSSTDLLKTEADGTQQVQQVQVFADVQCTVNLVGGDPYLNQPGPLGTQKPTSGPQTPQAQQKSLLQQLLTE
Luciferin 4-monooxygenase, sequence (P08659 whole entry): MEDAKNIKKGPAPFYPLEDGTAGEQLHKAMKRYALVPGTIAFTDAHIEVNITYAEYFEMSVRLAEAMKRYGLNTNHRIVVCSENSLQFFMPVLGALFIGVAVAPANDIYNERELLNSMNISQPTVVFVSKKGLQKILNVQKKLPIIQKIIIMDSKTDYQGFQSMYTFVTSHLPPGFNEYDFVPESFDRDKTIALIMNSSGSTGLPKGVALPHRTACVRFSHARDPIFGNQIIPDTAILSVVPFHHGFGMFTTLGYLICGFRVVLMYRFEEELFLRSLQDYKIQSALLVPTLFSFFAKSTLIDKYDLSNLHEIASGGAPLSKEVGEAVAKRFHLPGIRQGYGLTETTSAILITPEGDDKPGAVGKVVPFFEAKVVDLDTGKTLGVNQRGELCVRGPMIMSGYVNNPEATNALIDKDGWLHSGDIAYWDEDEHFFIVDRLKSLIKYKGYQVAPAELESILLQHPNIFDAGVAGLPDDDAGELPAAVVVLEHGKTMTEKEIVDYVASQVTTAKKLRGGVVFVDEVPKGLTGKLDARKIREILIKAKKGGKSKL

## Cn1cccc1-c1cc(C(=O)N/N=C/c2cc(Br)ccc2O)[nH]n1
[1]
  AC50: 5.25 µM (active)
[2]
  IC50: 13.4 µM (not active)
Cells [3]
  EC50: > 350 µM (not active)
Cells [4]
  EC50: 8.69 µM (active)

## O=C(NCc1cccs1)c1cc(-c2ccccc2)nc2ccccc12
[5]
  CC50: > 40 µM (active)

## CCOC(=O)c1sc2ccccc2c1NC(=O)c1coc2ccccc2c1=O
[6]
  EC50: 16.9 µM (active)
[7]
  EC50: > 120 µM (not active)
[5]
  CC50: > 40 µM (active)
H4
  EC50: > 120 µM (not active)

## COc1ccc(NC(=O)CSc2nccc(C)n2)cc1
Leucine aminopeptidase
  IC50: 20.3 µM (active)

## COc1ccc(NC(C)C(=O)N/N=C/c2ccc([N+](=O)[O-])s2)cc1 (centres undefined)
[1]
  AC50: 15.8 µM (active)
[8]
  EC50: 0.414 µM (active)
[5]
  CC50: 21.8 µM (active)
[9]
  EC50: > 60 µM (inconclusive)

## CC1=NNC(=O)C1CC(=O)N/N=C/C(C)=C/c1ccccc1 (centres undefined)
Leucine aminopeptidase
  IC50: 52.8 µM (active)

## COc1ccc(CC(=O)NCc2nnc(SCC(=O)Nc3cccc(F)c3)n2C)cc1
[10]
  EC50: > 79.4 µM (not active)
[11]
  EC50: > 79.4 µM (not active)
[12]
  EC50: > 79.4 µM (not active)

## COC(=O)CSc1nc2cc3c(cc2cc1C#N)OCO3
[6]
  EC50: 0.176 µM (active)
[10]
  EC50: 7.25 µM (active)
[11]
  EC50: 7.89 µM (active)
[12]
  EC50: 5.17 µM (active)

## Cc1cc(NC(=O)CN2C(=O)NC3(CCC(C)CC3)C2=O)no1 (centres undefined)
[10]
  EC50: > 79.4 µM (not active)
[11]
  EC50: > 79.4 µM (not active)
[12]
  EC50: > 79.4 µM (not active)

## CCO[C@H]1OC(C(=O)NCc2nc3ccccc3[nH]2)=C[C@@H](c2ccc(C(F)(F)F)cc2)[C@@H]1CCCO
[5]
  CC50: > 40 µM (active)

## CCc1ccc(N2NC(=O)/C(=C/C=C/c3ccco3)C2=O)cc1
[6]
  EC50: 48 µM (active)
[7]
  EC50: 14.8 µM (active)
H4
  EC50: 14.3 µM (active)
Cells [13]
  IC50: 12.1 µM (active)
[14]
  CC50: > 40 µM (active)

## O=C(Nc1ccccc1NC(=O)c1c(F)c(F)c(F)c(F)c1F)c1c(F)c(F)c(F)c(F)c1F
[15]
  EC50: 12.5 µM (active)
[16]
  EC50: 17.1 µM (active)

## NC(=NOCc1ccc([N+](=O)[O-])cc1)c1ccccn1
[2]
  IC50: > 39.8 µM (not active)
[17]
  EC50: 9.46 µM (active)
[18]
  EC50: 0.143 µM (active)
[19]
  IC50: > 80 µM (inactive)
[20]
  EC50: 0.201 µM (active)
[21]
  EC50: 7.95 µM (active)
[22]
  EC50: 0.223 µM (active)

## O=S(=O)(CCSc1ccccn1)c1nc2ccccc2s1
[23]
  AC50: 5.68 µM (active)
[15]
  EC50: 6.03 µM (active)
Protein RecA
  EC50: 9.21 µM (active)
[16]
  EC50: 8.47 µM (active)

## COc1ccc(S(=O)(=O)Nc2c(F)cccc2F)cc1
[10]
  EC50: > 79.4 µM (not active)
[11]
  EC50: > 79.4 µM (not active)
[12]
  EC50: > 79.4 µM (not active)

## CCOC(=O)Nc1c(O)ccc2oc(C)c(-c3ccccc3)c12
Leucine aminopeptidase
  IC50: 17.3 µM (active)

## Cc1nc(SCC(=O)Nc2ccc(F)cc2)c2oc3ccccc3c2n1
[10]
  EC50: > 79.4 µM (not active)
[11]
  EC50: > 79.4 µM (not active)
[12]
  EC50: 9.31 µM (active)

## CCOc1ccc(S(=O)(=O)Nc2cc(Sc3nc[nH]n3)c3oc(=O)sc3c2)cc1
[24]
  CC50: 26.2 µM (active)
[15]
  EC50: 18.6 µM (active)
[16]
  EC50: 13.8 µM (active)
